{"source": "patent US11377656B2", "about": "“Chemically modified messenger RNA's” (Novartis AG, priority 2016, dated 2022)", "key": {"HEK293 cells": {"test_system": "HEK293 cells", "assay": "Modified mRNA transfection and in vitro translation (secreted leptin ELISA)", "format": "cell-based", "settings": "1.5 micrograms capped leptin mRNA, Lipofectamine 2000, secreted leptin in medium at 24 h post-transfection", "protocol": "Prior to transfection, the cells were seeded at a density 5×10^5 cells per well in 6-well plates. The following day, 1.5 micrograms of capped unmodified or chemically modified leptin mRNA was complexed with Lipofectamine 2000 (Life Technologies) and transfected into cells according to the manufacturer's protocol. At 24 h post-transfection, secreted leptin protein concentration in the culture medium was measured by an Enzyme-linked immunosorbent assay (ELISA) using the Human Leptin Quantikine ELISA kit from R&D Systems (Minneapolis, Minn.). Protein expression levels for chemically modified mRNAs are shown as a percent of the unmodified mRNA level."}, "T7 RNA polymerase": {"biological_target": "T7 RNA polymerase (Escherichia phage T7, UniProt P00573)", "sequence (P00573 whole entry)": "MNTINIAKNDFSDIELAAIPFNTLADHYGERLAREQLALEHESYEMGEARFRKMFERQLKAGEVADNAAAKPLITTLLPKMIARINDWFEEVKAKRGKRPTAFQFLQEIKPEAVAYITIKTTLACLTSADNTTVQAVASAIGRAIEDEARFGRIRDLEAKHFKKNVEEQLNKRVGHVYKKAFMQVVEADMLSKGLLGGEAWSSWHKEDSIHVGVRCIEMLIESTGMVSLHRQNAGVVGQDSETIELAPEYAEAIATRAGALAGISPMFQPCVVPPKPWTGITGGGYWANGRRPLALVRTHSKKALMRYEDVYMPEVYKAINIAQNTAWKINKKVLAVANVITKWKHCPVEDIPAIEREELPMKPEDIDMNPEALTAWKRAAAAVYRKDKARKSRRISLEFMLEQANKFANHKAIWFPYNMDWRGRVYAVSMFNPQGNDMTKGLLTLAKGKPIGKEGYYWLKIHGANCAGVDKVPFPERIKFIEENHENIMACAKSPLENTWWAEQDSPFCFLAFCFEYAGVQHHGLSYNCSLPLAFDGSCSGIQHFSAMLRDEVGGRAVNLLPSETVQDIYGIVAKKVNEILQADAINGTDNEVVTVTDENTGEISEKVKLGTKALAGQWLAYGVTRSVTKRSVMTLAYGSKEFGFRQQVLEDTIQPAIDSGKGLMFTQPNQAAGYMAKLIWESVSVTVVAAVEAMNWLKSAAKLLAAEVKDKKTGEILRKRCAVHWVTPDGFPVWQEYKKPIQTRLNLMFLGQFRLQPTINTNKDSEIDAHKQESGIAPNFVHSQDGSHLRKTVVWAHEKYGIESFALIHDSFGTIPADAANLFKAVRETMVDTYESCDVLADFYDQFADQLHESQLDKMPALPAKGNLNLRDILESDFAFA", "assay": "In vitro transcription (IVT) of mRNA with modified NTP", "format": "biochemical", "settings": "modified NTP at 100% substitution of the corresponding natural nucleotide; human leptin template; yield as percent of unmodified mRNA yield", "text": "The modified synthetic mRNA was generated by in vitro transcription (IVT) incorporating the chemically modified nucleotide triphosphate (NTP) at 100% substitution of the corresponding natural nucleotide. The IVT plasmid template used contained a T7 promoter sequence and the human leptin coding sequence (Protein Accession #NP_000221) flanked by a 5′ untranslated region (UTR) of Tobacco Etch Virus with a strong Kozak sequence, and 2 tandem copies of the human beta-globin 3′UTR (Holtkamp S et al. (2006) Blood 108: 4009-4017) followed by a poly-A tail comprising 120 nucleotides in length.\nA typical in vitro transcription reaction was done using the following protocol:\nThe IVT reagents in the Table above were mixed and incubated for 1-2 hours at 37° C. The DNA template was then digested with 0.04 U/μL DNase (New England Biolabs), and incubated for 30 minutes at 37° C. The mRNA was precipitated by adding lithium chloride (LiCl) solution (Ambion, Cat. #AM9480) to a final concentration of 2.81 M and incubating for >1 hour at −20° C. The mixture was centrifuged at 20,000×g for 15 minutes at 4° C., and then the supernatant was removed and the pellet washed with 70% ethanol. After centrifugation for 10 minutes, the ethanol was removed and the pellet was resuspended in nuclease-free water. In cases where the mRNA is used for HPLC purification, a second precipitation was done by adding 10% volume of 3 M sodium acetate pH 5.5 and 1 volume of room temperature isopropanol followed by incubation overnight at −20° C. The mRNA was centrifuged, washed and resuspended as described above. mRNA concentration was quantified using the NanoDrop and analyzed using an Agilent 2100 Bioanalyzer to confirm proper size and quality (i.e. no degradation). The modified mRNA can then be stored at −80° C. until capping."}}, "data": [{"substance": "1-methoxyethyl-pseudouridine [compound 11]", "values": [{"measurement": "In vitro translation (Protein quantity relative to unmodified mRNA in percentage)", "setting": "HEK293 cells", "value": "<50", "unit": "%"}, {"measurement": "In vitro transcription (mRNA quantity relative to unmodified NTP in percentage)", "setting": "T7 RNA polymerase", "value": ">50", "unit": "%"}]}, {"substance": "1-methyoxymethyl-pseudouridine [compound 10]", "values": [{"measurement": "In vitro translation (Protein quantity relative to unmodified mRNA in percentage)", "setting": "HEK293 cells", "value": ">50", "unit": "%"}, {"measurement": "In vitro transcription (mRNA quantity relative to unmodified NTP in percentage)", "setting": "T7 RNA polymerase", "value": ">50", "unit": "%"}]}, {"substance": "5-methoxycarbonyamino-uridine [compound 5]", "values": [{"measurement": "In vitro translation (Protein quantity relative to unmodified mRNA in percentage)", "setting": "HEK293 cells", "value": "<50", "unit": "%"}, {"measurement": "In vitro transcription (mRNA quantity relative to unmodified NTP in percentage)", "setting": "T7 RNA polymerase", "value": ">50", "unit": "%"}]}, {"substance": "7-methyl-9-deazaguanosine [compound 16]", "values": [{"measurement": "In vitro translation (Protein quantity relative to unmodified mRNA in percentage)", "setting": "HEK293 cells", "value": "<50", "unit": "%"}, {"measurement": "In vitro transcription (mRNA quantity relative to unmodified NTP in percentage)", "setting": "T7 RNA polymerase", "value": ">50", "unit": "%"}]}]}
